From US7351706B2, “Indol-3-yl-carbonyl-spiro-piperidine derivatives” (Hoffmann-La Roche Inc., priority 2006, dated 2008)

Target: T1, human V1a receptor (Homo sapiens, UniProt P37288)
T1 construct: expressed in transfected cells; host or cells: HEK293 cells, transiently transfected; membranes prepared
Assay: human V1a receptor binding (3H-Vasopressin SPA, HEK293 membranes)
Conditions: 3H-Vasopressin displacement, membranes of HEK293 cells transiently transfected with human V1a; Ki by Cheng-Prussoff
Description: The human V1a receptor was cloned by RT-PCR from total human liver RNA. The coding sequence was subcloned in an expression vector after sequencing to confirm the identity of the amplified sequence. […] Cell membranes were prepared from HEK293 cells transiently transfected with the expression vector and grown in 20 liter fermenters with the following protocol.
50 g of cells are resuspended in 30 ml freshly prepared ice cold Lysis buffer (50 mM HEPES, 1 mM EDTA, 10 mM MgCl2 adjusted to pH=7.4+complete cocktail of protease inhibitor (Roche Diagnostics)). Homogenized with Polytron for 1 min and sonicated on ice for 2×2 minutes at 80% intensity (Vibracell sonicator). The preparation is centrifuged 20 min at 500 g at 4° C., the pellet is discarded and the supernatant centrifuged 1 hour at 43'000 g at 4° C. (19'000 rpm). The pellet is resuspended in 12.5 ml Lysis buffer+12.5 ml Sucrose 20% and homogenized using a Polytron for 1-2 min. The protein concentration is determined by the Bradford method and aliquots are stored at −80° C. until use. For binding studies 60 mg Yttrium silicate SPA beads (Amersham) are mixed with an aliquot of membrane in binding buffer (50 mM Tris, 120 mM NaCl, 5 mM KCl, 2 mM CaCl2, 10 mM MgCl2) for 15 minutes with mixing. 50 ul of bead/membrane mixture is then added to each well of a 96 well plate, followed by 50 ul of 4 nM 3H-Vasopressin (American Radiolabeled Chemicals). For total binding measurement 100 ul of binding buffer are added to the respective wells, for non-specific binding 100 ul of […] cold vasopressin and for compound testing 100 ul of a serial dilution of each compound in 2% DMSO. The plate is incubated 1 h at room temperature, centrifuged 1 min at 1000 g and counted on a Packard Top-Count. Non-specific binding counts are subtracted from each well and data is normalized to the maximum specific binding set at 100%. To calculate an IC 50 the curve is fitted using a non-linear regression model (XLfit) and the Ki is calculated using the Cheng-Prussoff equation.

T1 sequence (P37288 whole entry): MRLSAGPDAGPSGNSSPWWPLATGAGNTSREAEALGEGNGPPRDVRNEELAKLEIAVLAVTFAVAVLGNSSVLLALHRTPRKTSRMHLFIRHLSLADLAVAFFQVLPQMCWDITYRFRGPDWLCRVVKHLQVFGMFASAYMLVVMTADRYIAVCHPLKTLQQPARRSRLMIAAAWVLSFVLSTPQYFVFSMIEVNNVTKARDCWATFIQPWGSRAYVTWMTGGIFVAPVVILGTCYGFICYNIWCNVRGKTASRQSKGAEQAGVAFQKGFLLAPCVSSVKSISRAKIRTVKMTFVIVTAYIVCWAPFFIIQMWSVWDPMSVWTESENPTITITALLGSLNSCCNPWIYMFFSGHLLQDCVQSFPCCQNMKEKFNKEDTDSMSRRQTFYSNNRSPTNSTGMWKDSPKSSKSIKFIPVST

Row | SMILES | Ki [nM]
1 | O=C1Nc2ccccc2C2(CCN(C(=O)c3c[nH]c4cc(Cl)ccc34)CC2)O1 [Example 1, 1′-[(6-Chloro-1H-indol-3-yl)carbonyl]spiro[3,1-benzoxazine-4,4′-piperidin]-2(1H)-one] | 32
2 | O=C1CC2(CCN(C(=O)c3c[nH]c4ccccc34)CC2)c2cc(Br)ccc2N1 [Example 2, 6′-Bromo-1-(1H-indol-3-ylcarbonyl)-1′H-spiro[piperidine-4,4′-quinolin]-2′(3′H)-one] | 2050
3 | CN(C)CCN1C(=O)OC2(CCN(C(=O)c3c[nH]c4cc(Cl)ccc34)CC2)c2cc(Cl)ccc21 [Example 3, 6-Chloro-1′-[(6-chloro-1H-indol-3-yl)carbonyl]-1-[2-(dimethylamino)ethyl]spiro[3,1-benzoxazine-4,4′-piperidin]-2(1H)-one] | 402
4 | O=C1Nc2ccc(Cl)cc2C2(CCN(C(=O)c3c[nH]c4cc(Cl)ccc34)CC2)O1 [Example 4, 6-Chloro-1′-[(6-chloro-1H-indol-3-yl)carbonyl]spiro[3,1-benzoxazine-4,4′-piperidin]-2(1H)-one] | 310
5 | O=C1Nc2ccccc2C2(CCN(C(=O)c3cn(-c4cc(F)cc(F)c4)c4cc(Cl)ccc34)CC2)O1 [Example 5, 1′-{[6-Chloro-1-(3,5-difluorophenyl)-1H-indol-3-yl]carbonyl}spiro[3,1-benzoxazine-4,4′-piperidin]-2(1H)-one] | 130
6 | O=C1Nc2ccccc2C2(CCN(C(=O)c3cn(C(=O)c4cccc(F)c4)c4cc(Cl)ccc34)CC2)O1 [Example 6, 1′-{[6-Chloro-1-(3-fluorobenzoyl)-1H-indol-3-yl]carbonyl}spiro[3,1-benzoxazine-4,4′-piperidin]-2(1H)-one] | 118
7 | O=C1Nc2ccccc2C2(CCN(C(=O)c3cn(C(=O)c4ccccc4F)c4cc(Cl)ccc34)CC2)O1 [Example 7, 1′-{[6-Chloro-1-(2-fluorobenzoyl)-1H-indol-3-yl]carbonyl}spiro[3,1-benzoxazine-4,4′-piperidin]-2(1H)-one] | 117
8 | O=C1Nc2ccccc2C2(CCN(C(=O)c3cn(C(=O)c4cccc(F)c4F)c4cc(Cl)ccc34)CC2)O1 [Example 8, 1′-{[6-Chloro-1-(2,3-difluorobenzoyl)-1H-indol-3-yl]carbonyl}spiro[3,1-benzoxazine-4,4′-piperidin]-2(1H)-one] | 136
9 | O=C1Nc2ccccc2C2(CCN(C(=O)c3cn(Cc4cc(F)cc(F)c4)c4cc(Cl)ccc34)CC2)O1 [Example 10, 1′-{[6-Chloro-1-(3,5-difluorobenzyl)-1H-indol-3-yl]carbonyl}spiro[3,1-benzoxazine-4,4′-piperidin]-2(1H)-one] | 3
10 | O=C1Nc2ccccc2C2(CCN(C(=O)c3cn(CC(=O)N4CCOCC4)c4cc(Cl)ccc34)CC2)O1 [Example 16, 1′-{[6-Chloro-1-(2-morpholin-4-yl-2-oxoethyl)-1H-indol-3-yl]carbonyl}spiro[3,1-benzoxazine-4,4′-piperidin]-2(1H)-one] | 20
11 | O=C1Nc2ccccc2C2(CCN(C(=O)c3cn(C(=O)N4CCCCC4)c4cc(Cl)ccc34)CC2)O1 [Example 19, 1′-{[6-Chloro-1-(piperidin-1-ylcarbonyl)-1H-indol-3-yl]carbonyl}spiro[3,1-benzoxazine-4,4′-piperidin]-2(1H)-one] | 46
12 | O=C1Nc2ccccc2C2(CCN(C(=O)c3cn(C(=O)c4cc(F)cc(F)c4)c4cc(Cl)ccc34)CC2)O1 [Example 21, 1′-{[6-Chloro-1-(3,5-difluorobenzoyl)-1H-indol-3-yl]carbonyl}spiro[3,1-benzoxazine-4,4′-piperidin]-2(1H)-one] | 88
13 | O=C1Nc2ccccc2C2(CCN(C(=O)c3cn(CC(=O)c4cc(F)cc(F)c4)c4cc(Cl)ccc34)CC2)O1 [Example 22, 1′-({6-Chloro-1-[2-(3,5-difluorophenyl)-2-oxoethyl]-1H-indol-3-yl}carbonyl)spiro[3,1-benzoxazine-4,4′-piperidin]-2(1H)-one] | 200
14 | N#CCCn1cc(C(=O)N2CCC3(CC2)OC(=O)Nc2ccccc23)c2ccc(Cl)cc21 [Example 24, 3-{6-Chloro-3-[(2-oxo-1,2-dihydro-1′H-spiro[3,1-benzoxazine-4,4′-piperidin]-1′-yl)carbonyl]-1H-indol-1-yl}propanenitrile] | 10
15 | CC(C#N)n1cc(C(=O)N2CCC3(CC2)OC(=O)Nc2ccccc23)c2ccc(Cl)cc21 (centres unmarked) [Example 25, 2-{6-Chloro-3-[(2-oxo-1,2-dihydro-1′H-spiro[3,1-benzoxazine-4,4′-piperidin]-1′-yl)carbonyl]-1H-indol-1-yl}propanenitrile] | 28
16 | Cc1oc(-c2ccccc2)nc1C(=O)Cn1cc(C(=O)N2CCC3(CC2)OC(=O)Nc2ccccc23)c2ccc(Cl)cc21 [Example 27, 1′-({6-Chloro-1-[2-(5-methyl-2-phenyl-1,3-oxazol-4-yl)-2-oxoethyl]-1H-indol-3-yl}carbonyl)spiro[3,1-benzoxazine-4,4′-piperidin]-2(1H)-one] | 29
17 | CNC(=O)Cn1cc(C(=O)N2CCC3(CC2)CNC(=O)c2ccccc23)c2ccc(Cl)cc21 [Example 28, 2-{6-chloro-3-[(1-oxo-2,3-dihydro-1H, 1′H-spiro[isoquinoline-4,4′-piperidin]-1′-yl)carbonyl]-1H-indol-1-yl}-N-methylacetamide] | 166

Other lines, results leading:

Row | Ki [nM] | SMILES
18 | 5 | O=C1Nc2ccccc2C2(CCN(C(=O)c3cn(Cc4cccc(F)c4)c4cc(Cl)ccc34)CC2)O1 [Example 11, 1′-{[6-Chloro-1-(3-fluorobenzyl)-1H-indol-3-yl]carbonyl}spiro[3,1-benzoxazine-4,4′-piperidin]-2(1H)-one]
19 | 7 | O=C1Nc2ccccc2C2(CCN(C(=O)c3cn(CC(=O)c4cccc(F)c4)c4cc(Cl)ccc34)CC2)O1 [Example 12, 1′-({6-Chloro-1-[2-(3-fluorophenyl)-2-oxoethyl]-1H-indol-3-yl}carbonyl)spiro[3,1-benzoxazine-4,4′-piperidin]-2(1H)-one]
20 | 8 | O=C1Nc2ccccc2C2(CCN(C(=O)c3cn(CC(=O)c4ccc(F)c(F)c4)c4cc(Cl)ccc34)CC2)O1 [Example 13, 1′-({6-Chloro-1-[2-(3,4-difluorophenyl)-2-oxoethyl]-1H-indol-3-yl}carbonyl)spiro[3,1-benzoxazine-4,4′-piperidin]-2(1H)-one]
21 | 7 | O=C1Nc2ccccc2C2(CCN(C(=O)c3cn(CC(=O)N4CCCCC4)c4cc(Cl)ccc34)CC2)O1 [Example 15, 1′-{[6-Chloro-1-(2-oxo-2-piperidin-1-ylethyl)-1H-indol-3-yl]carbonyl}spiro[3,1-benzoxazine-4,4′-piperidin]-2(1H)-one]
22 | 5.7 | CN(C)C(=O)Cn1cc(C(=O)N2CCC3(CC2)OC(=O)Nc2ccccc23)c2ccc(Cl)cc21 [Example 17, 2-{6-Chloro-3-[(2-oxo-1,2-dihydro-1′H-spiro[3,1-benzoxazine-4,4′-piperidin]-1′-yl)carbonyl]-1H-indol-1-yl}-N,N-dimethylacetamide]
23 | 6 | CCN(CC)C(=O)Cn1cc(C(=O)N2CCC3(CC2)OC(=O)Nc2ccccc23)c2ccc(Cl)cc21 [Example 18, 2-{6-Chloro-3-[(2-oxo-1,2-dihydro-1H-spiro[3,1-benzoxazine-4,4′-piperidin]-1′-yl)carbonyl]-1H-indol-1-yl}-N,N-diethylacetamide]
24 | 10 | CC(C)(C)OC(=O)Cn1cc(C(=O)N2CCC3(CC2)OC(=O)Nc2ccccc23)c2ccc(Cl)cc21 [Example 20, tert-Butyl {6-chloro-3-[(2-oxo-1,2-dihydro-1′H-spiro[3,1-benzoxazine-4,4′-piperidin]-1′-yl)carbonyl]-1H-indol-1-yl}acetate]
25 | 2 | O=C1Nc2ccccc2C2(CCN(C(=O)c3cn(CC(=O)c4ccccc4F)c4cc(Cl)ccc34)CC2)O1 [Example 23, 1′-({6-Chloro-1-[2-(2-fluorophenyl)-2-oxoethyl]-1H-indol-3-yl}carbonyl)spiro[3,1-benzoxazine-4,4′-piperidin]-2(1H)-one]
26 | 8 | O=C1Nc2ccccc2C2(CCN(C(=O)c3cn(CC(=O)c4ccccn4)c4cc(Cl)ccc34)CC2)O1 [Example 26, 1′-{[6-Chloro-1-(2-oxo-2-pyridin-2-ylethyl)-1H-indol-3-yl]carbonyl}spiro[3,1-benzoxazine-4,4′-piperidin]-2(1H)-one]
